{
  "source": "ChEMBL document CHEMBL1681705",
  "about": "“Optimisation of ITK inhibitors through successive iterative design cycles” (Bioorg Med Chem Lett, 2011)",
  "key": {"[1]": {"target": "T1, Serine/threonine-protein kinase Chk1 (Homo sapiens) (UniProt O14757)", "T1 sequence (whole entry)": "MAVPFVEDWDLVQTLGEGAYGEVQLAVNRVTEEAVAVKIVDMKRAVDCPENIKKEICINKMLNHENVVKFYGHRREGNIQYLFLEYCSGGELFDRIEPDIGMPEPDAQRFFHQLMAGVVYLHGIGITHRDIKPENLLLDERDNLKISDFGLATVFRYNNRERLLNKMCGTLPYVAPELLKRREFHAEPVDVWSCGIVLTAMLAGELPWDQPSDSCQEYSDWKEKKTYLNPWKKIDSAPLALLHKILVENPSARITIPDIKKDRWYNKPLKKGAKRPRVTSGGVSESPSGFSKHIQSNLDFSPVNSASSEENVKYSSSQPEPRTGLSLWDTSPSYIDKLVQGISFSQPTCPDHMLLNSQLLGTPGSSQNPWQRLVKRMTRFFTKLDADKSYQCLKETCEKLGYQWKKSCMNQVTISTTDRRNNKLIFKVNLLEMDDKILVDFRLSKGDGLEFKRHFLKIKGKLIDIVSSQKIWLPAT", "experiment": "Inhibition of CHK1 at 0.1 uM; values are per cent of control"}, "[2]": {"target": "MAP kinase-activated protein kinase 2 (Homo sapiens) (UniProt P49137)", "sequence (P49137 whole entry, looked up)": "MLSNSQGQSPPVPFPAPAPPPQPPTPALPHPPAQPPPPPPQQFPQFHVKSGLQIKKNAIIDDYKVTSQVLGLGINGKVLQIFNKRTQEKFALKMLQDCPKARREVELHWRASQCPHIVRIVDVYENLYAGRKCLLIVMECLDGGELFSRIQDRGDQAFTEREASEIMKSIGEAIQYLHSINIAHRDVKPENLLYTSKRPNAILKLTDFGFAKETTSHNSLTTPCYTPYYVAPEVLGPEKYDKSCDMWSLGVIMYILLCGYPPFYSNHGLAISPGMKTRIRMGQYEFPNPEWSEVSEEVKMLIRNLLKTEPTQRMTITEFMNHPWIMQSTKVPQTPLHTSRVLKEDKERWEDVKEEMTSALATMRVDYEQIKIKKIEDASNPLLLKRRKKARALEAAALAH", "experiment": "Inhibition of MAPKAP-K2 at 0.1 uM; values are per cent of control"}, "[3]": {"target": "T2, Ephrin type-A receptor 3 (Homo sapiens) (UniProt P29320)", "T2 sequence (whole entry)": "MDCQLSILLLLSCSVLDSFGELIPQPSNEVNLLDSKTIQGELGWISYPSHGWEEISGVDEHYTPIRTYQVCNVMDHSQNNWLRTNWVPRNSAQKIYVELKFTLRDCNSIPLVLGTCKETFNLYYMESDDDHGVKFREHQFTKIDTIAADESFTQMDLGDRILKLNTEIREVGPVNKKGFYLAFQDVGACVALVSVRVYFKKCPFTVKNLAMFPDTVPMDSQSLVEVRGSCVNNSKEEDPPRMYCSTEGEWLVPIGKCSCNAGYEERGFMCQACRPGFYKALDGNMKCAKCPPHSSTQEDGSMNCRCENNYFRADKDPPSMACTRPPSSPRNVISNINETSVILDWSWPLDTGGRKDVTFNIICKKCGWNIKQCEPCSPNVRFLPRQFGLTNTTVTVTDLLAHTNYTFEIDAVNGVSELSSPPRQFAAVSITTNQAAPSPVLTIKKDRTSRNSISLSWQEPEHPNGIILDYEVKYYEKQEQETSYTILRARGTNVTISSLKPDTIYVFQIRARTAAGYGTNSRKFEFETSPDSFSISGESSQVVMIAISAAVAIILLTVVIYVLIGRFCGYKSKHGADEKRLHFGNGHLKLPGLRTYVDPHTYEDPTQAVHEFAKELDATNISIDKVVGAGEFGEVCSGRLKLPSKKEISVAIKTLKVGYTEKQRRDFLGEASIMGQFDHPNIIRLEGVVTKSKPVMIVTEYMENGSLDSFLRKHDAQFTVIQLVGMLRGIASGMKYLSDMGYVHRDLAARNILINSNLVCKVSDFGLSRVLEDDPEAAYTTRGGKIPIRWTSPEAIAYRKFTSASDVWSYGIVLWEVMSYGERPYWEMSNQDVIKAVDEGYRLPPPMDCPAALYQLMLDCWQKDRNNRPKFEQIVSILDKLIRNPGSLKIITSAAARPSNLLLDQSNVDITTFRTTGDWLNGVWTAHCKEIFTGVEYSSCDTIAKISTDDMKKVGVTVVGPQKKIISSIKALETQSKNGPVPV", "experiment": "Inhibition of EphA3 at 1 uM; values are per cent of control"}, "[4]": {"target": "Fibroblast growth factor receptor 4 (Homo sapiens) (UniProt P22455)", "sequence (P22455 22-802 limits assumed)": "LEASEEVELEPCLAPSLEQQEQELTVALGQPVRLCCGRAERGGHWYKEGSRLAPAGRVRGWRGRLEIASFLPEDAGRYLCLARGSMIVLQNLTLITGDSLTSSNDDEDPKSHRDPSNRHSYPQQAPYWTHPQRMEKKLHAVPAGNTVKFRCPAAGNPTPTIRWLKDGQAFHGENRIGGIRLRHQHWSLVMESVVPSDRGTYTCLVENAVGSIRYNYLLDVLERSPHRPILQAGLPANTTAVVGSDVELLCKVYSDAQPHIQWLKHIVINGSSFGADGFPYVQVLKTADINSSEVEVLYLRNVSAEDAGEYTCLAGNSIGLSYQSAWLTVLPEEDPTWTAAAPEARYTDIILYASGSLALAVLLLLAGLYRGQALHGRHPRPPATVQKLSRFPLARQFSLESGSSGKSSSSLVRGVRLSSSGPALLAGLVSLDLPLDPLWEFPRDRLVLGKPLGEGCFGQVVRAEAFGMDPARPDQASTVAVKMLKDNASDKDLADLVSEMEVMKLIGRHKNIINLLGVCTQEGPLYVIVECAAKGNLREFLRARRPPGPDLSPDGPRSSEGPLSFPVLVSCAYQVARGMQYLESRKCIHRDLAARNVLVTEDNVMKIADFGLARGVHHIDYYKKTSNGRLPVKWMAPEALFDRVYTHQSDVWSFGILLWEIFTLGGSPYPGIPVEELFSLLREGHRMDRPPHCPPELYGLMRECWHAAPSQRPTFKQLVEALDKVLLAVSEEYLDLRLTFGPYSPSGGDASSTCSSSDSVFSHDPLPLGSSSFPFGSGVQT", "experiment": "Inhibition of FGFR4 at 1 uM; values are per cent of control"}, "[5]": {"target": "Serine/threonine-protein kinase PLK3 (Homo sapiens) (UniProt Q9H4B4)", "sequence (Q9H4B4 whole entry, looked up)": "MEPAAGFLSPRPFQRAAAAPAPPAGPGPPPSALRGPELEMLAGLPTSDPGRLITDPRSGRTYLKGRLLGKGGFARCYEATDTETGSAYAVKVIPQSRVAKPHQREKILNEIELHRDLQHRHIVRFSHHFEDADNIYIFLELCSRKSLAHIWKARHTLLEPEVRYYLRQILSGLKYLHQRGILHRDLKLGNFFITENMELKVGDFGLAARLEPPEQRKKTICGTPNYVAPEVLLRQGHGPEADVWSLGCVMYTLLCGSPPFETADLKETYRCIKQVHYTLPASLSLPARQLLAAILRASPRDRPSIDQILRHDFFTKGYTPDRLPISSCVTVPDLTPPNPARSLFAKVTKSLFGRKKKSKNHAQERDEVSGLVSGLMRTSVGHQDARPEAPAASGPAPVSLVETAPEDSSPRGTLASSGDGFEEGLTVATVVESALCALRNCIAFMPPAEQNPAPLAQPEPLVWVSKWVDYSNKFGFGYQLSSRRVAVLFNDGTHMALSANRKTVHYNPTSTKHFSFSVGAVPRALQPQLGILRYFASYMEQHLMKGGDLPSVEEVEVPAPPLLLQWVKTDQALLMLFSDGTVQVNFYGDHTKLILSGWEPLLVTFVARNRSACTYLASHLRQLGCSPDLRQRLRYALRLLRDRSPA", "experiment": "Inhibition of Plk3 at 0.1 uM; values are per cent of control"}, "[6]": {"target": "T3, Serine/threonine-protein kinase TBK1 (Homo sapiens) (UniProt Q9UHD2)", "T3 sequence (whole entry)": "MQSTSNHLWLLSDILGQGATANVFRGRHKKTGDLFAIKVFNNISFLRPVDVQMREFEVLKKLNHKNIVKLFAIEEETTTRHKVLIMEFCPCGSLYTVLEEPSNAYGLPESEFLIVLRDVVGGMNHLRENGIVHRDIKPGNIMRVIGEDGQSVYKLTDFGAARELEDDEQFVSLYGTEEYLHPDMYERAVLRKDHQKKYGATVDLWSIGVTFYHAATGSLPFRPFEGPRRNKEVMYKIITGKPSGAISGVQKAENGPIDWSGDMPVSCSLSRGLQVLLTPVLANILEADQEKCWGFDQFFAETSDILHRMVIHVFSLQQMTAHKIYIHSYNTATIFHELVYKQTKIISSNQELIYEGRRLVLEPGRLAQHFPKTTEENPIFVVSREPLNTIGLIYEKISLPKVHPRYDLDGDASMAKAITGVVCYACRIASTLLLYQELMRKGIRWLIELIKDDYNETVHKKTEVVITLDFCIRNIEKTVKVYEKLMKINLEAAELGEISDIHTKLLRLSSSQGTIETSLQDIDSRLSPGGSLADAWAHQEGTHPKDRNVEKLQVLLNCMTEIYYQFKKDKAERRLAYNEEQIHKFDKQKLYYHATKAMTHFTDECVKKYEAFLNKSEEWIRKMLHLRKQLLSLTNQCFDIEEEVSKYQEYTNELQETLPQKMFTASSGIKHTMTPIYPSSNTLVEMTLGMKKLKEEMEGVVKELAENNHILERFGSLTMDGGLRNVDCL", "experiment": "Inhibition of TBK1 at 1 uM; values are per cent of control"}},
  "data": [
    {"smiles": "Cc1ccc2cc(-c3n[nH]c4ccc(NC5CCNC5)cc34)[nH]c2c1", "note": "(configuration not stated)", "values": [
      {"measurement": "residual activity", "setting": "[1]", "value": 18, "unit": "%"},
      {"measurement": "residual activity", "setting": "[2]", "value": 98, "unit": "%"},
      {"measurement": "residual activity", "setting": "[3]", "value": 29, "unit": "%"},
      {"measurement": "residual activity", "setting": "[4]", "value": 6, "unit": "%"},
      {"measurement": "residual activity", "setting": "[5]", "value": 106, "unit": "%"},
      {"measurement": "residual activity", "setting": "[6]", "value": 2, "unit": "%"}
    ]},
    {"smiles": "Cc1ccc2cc(-c3n[nH]c4ccc(NC5CCN(Cc6ccccc6)CC5)cc34)[nH]c2c1", "values": [
      {"measurement": "residual activity", "setting": "[1]", "value": 90, "unit": "%"},
      {"measurement": "residual activity", "setting": "[2]", "value": 104, "unit": "%"},
      {"measurement": "residual activity", "setting": "[3]", "value": 14, "unit": "%"},
      {"measurement": "residual activity", "setting": "[4]", "value": 10, "unit": "%"},
      {"measurement": "residual activity", "setting": "[5]", "value": 103, "unit": "%"},
      {"measurement": "residual activity", "setting": "[6]", "value": 9, "unit": "%"}
    ]}
  ]
}
